Reference: patent US11319300B2, “Polyfluoro-substituted aromatic heterocyclic derivative, pharmaceutical composition containing same, and applications thereof” (ZHEJIANG UNIVERSITY, priority 2017, dated 2022)
Marks after values point to notes of the source that are not given here.

Tests used:
hERG potassium channel = molecular target: T1, hERG potassium channel (Homo sapiens, UniProt Q12809); experiment: hERG potassium channel inhibition, manual whole-cell patch clamp in CHO hERG cells; assay type: cell-based; settings: for hERG (Inhibition rate at 3 μM concentration): CHO hERG cells, patch clamp
T1 construct: host or cells: CHO
T1 sequence (Q12809 whole entry): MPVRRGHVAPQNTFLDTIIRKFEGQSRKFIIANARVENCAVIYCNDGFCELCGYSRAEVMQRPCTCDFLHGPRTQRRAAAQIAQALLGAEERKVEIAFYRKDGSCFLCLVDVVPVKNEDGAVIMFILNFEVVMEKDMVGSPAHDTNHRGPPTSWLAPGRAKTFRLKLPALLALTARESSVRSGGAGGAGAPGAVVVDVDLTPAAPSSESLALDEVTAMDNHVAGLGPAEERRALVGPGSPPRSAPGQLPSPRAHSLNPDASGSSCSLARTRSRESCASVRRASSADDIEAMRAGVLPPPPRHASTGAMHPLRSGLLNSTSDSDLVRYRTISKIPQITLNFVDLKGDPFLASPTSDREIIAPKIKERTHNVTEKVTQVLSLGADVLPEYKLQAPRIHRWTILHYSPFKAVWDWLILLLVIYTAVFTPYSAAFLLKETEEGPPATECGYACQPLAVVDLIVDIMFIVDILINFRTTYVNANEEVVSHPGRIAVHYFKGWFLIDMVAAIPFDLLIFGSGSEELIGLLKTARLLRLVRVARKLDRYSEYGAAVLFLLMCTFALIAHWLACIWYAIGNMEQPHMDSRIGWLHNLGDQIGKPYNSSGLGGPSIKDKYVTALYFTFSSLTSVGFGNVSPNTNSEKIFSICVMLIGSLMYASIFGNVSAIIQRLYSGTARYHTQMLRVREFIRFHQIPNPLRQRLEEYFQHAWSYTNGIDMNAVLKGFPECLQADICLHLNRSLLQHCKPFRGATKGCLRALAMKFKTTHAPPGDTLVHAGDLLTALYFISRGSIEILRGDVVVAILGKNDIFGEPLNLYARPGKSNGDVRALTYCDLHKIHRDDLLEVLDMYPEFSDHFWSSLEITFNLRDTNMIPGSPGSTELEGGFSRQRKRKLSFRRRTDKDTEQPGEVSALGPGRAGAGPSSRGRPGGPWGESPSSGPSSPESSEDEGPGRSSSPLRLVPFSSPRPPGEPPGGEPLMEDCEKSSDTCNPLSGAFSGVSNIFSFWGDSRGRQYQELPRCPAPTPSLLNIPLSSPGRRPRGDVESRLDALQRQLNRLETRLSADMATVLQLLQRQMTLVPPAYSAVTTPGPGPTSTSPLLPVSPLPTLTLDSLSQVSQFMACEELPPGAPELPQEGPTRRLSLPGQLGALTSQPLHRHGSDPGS
Experimental: A Sixty-Third Embodiment: hERG Potassium Channel Inhibition Activity Experiment
The cells used in this assay were CHO cell lines transfected with hERG cDNA and stably expressing the hERG channel (supplied by Sophion Bioscience, Denmark). The cells were cultured in medium containing the following components (all from Invitrogen): Ham's F12 medium, 10% (v/v) inactivated fetal bovine serum, 100 μg/ml hygromycin B, and 100 μg/ml Geneticin. 2.1.2CHO hERG cells were grown in a Petri dish containing the above culture solution, and cultured in an incubator containing 5% of CO2 at 37° C. 24 to 48 hours prior to electrophysiological experiments, CHO hERG cells were transferred to circular glass slides placed in petri dishes and grown under the same culture and culture conditions as above. The density of CHO hERG cells on each circular slide requires that most cells achieve independent, individual requirements.
2. Compound Treatment and Dilution
To obtain the IC50 of the compound, we selecte the following concentrations (30, 10, 3, 1, 0.3, and 0.1 μM) for testing. Prior to testing, the […] were first diluted to 10, 3, 1, 0.3, and 0.1 mM stock solution in gradual dilution with DMSO and then diluted to the final μM test concentration with extracellular fluid. The final concentration of DMSO in each of the other compound solutions was 0.1% except that the DMSO concentration in the 30 μM compound test solution was 0.3%. The positive control Cisapride (cishabili) was tested at a concentration of 0.1 μM. All compound solutions were sonicated and shaken for 5 to 10 minutes to ensure complete dissolution of the compound.
3. Electrophysiological Recording System and Data Analysis
This experiment uses a manual patch clamp system (HEKA EPC-10 signal amplifier and digital conversion system, purchased from HEKA Electronics, Germany) for the recording of whole cell currents. Round slide with CHO hERG cells on the surface was placed in an electrophysiology recording cell under an inverted microscope. The extracellular fluid was continuously perfused in the recording tank (about 1 ml per minute). The experimental procedure uses conventional whole-cell patch clamp current recording techniques. Unless otherwise stated, the experiments were carried out at regular room temperature (˜25° C.). The cells were clamped at a voltage of −80 mV. The cell clamp voltage was depolarized to +20 mV to activate the hERG potassium channel, and after 5 seconds it was clamped to −50 mV to eliminate inactivation and generate tail current. The tail current peak was used as the value of the hERG current magnitude. After the hERG potassium current recorded in the above step was stabilized under the continuous extracellular fluid perfusion in the recording tank, the drug to be tested can be superimposed and filled until the inhibitory effect of the drug on the hERG current reaches a steady state. Generally, the recent three consecutive current recording lines were recombined as a criterion for judging whether or not the state is stable. After reaching a steady state, extracellular fluid perfusion rinse until hERG current returns to the size before adding drug. One cell can test one or more drugs, or multiple concentrations of the same drug, but need to be flushed with extracellular fluid between different drugs. Cisapride (cisapride, purchased from Sigma) was used in the experiment as a positive control to ensure that the cells used were of normal quality. The test data was analysed by HEKA Patchmaster, Microsoft Excel and data analysis software provided by Graphpad Prism.

[1] = tested on: human gastric cancer HGC27 nude mice xenografts; experiment: In vivo antitumour activity, human gastric cancer HGC27 nude mice xenografts; settings: HGC27 xenograft, 50 mg/kg intragastric once a day; for Tumour volume D1: D1 (start)
Experimental: (§1) A Sixty-Fifth Embodiment: In Vivo Antitumour Activity of Compounds
(§2) 1) Establishment of a nude mouse xenograft model: 1×10^7 test tumour cells were injected into the armpit of nude mice, after three generations, HGC27 mouse tumour blocks were dissected and placed in a glass dish containing physiological saline, after the necrotic area was removed by incision, the tumour mass was cut into 1-2 mm^3 and inserted into the left axilla of the nude mouse with a trocar.
(§3) 2) Animal grouping and drug delivery arrangements: after the tumour grows to an average volume of 100-300 mm^3, 20 mice were randomly grouped according to the tumour volume, and the above test animals were given the corresponding test substances by intragastric administration at a dose of 10 mL/kg with once a day.
(§4) 3) Data measurement and statistics: The tumour volume was weighed and measured twice and dosing period was 21 days. On the 22nd day, after the body weight was weighed and the tumour volume was measured, the nude mice were sacrificed and the tumours were weighed to calculate the relative tumour volume (RTV), relative tumour growth rate (T/C) and tumour inhibition percentage (IR) for statistical testing. The calculation formula was as follows: (a) TV (tumour volume)=½×a×b^2, wherein a and b represent the length and width of the tumour respectively, (b) RTV (relative tumour volume)=Vt/V0, Where V0 is the tumour volume measured at the time of group administration (i.e. d0), Vt is the tumour volume at each measurement, (c) T/C (%)=TRTV/CRTV×100%, wherein TRTV is the RTV of treatment group, CRTV is the RTV of the solvent control group, (d) IR (%)=(1−TWt/TWc)×100%, wherein TWt is the tumour weight of the treatment group, and TWc is the tumour weight of the solvent control group.

[2] = Oral pharmacokinetic experiment in SD rats; assay type: in vivo; settings: oral administration; for 1/2 / AUC0-inf / AUC0-t / Cmax / Tmax: 20 mg/kg, mean n = 3; for Cmax / Tmax: rat
Experimental: […] The blood sampling times of the tail vein administered by intragastric administration were 0.25, 0.5, 1, 2, 4, 6, 8, 10, 24 hours; the times of blood collection by intravenous administration were 0.05, 0.1, 0.17, 0.5, 1, 2, 4, 6, 8, 10, 24 hours. 0.3 ml of whole blood was taken, and after centrifugation, 0.1 ml of plasma was taken and analysed by LC-MS.

[3] = tested on: human ovarian cancer SKOV3 nude mice xenografts; experiment: In vivo antitumour activity, human ovarian cancer SKOV3 nude mice xenografts; settings: SKOV3 xenograft, 50 mg/kg
[4] = tested on: human kidney cancer 786-O nude mice xenografts; experiment: In vivo antitumour activity, human kidney cancer 786-O nude mice xenografts; settings: 786-O xenograft; for Tumour volume D1: D 1 (start); for Tumour volume D1 / RTV: x ± SE; for Tumour volume D 21: D 21, x ± SE
Experimental: [Worded in the source for another cell line; this cell line is reported under the same test.] as §1, §2, §3, §4

CEM-C1 = experiment: Tumour cell proliferation inhibition, MTT assay, CEM-C1; assay type: cell-based, human; settings: 72 hours
HGC27 = experiment: Tumour cell proliferation inhibition, MTT assay, HGC27; assay type: cell-based, human; settings: 72 hours
MCF-7 = experiment: Tumour cell proliferation inhibition, MTT assay, MCF-7; assay type: cell-based, human; settings: 72 hours
786-O = experiment: Tumour cell proliferation inhibition, MTT assay, 786-O; assay type: cell-based, human; settings: 72 hours
HCT-116 = experiment: Tumour cell proliferation inhibition, MTT assay, HCT-116; assay type: cell-based, human; settings: 72 hours
Experimental: Compound AZD5363 (NCT02208375, NCT02208375, NCT01625286), which have entered the clinical phase II study, was used as a positive control, and the compound was assayed against common tumour cell lines (human ovarian cancer cell line OVCAR-8 and human colon cancer cell line HCT-116) by MTT assay, at the same time, the akt1 enzyme inhibitory activity (IC50) was evaluated using a commercial Akt1 kit.
1) The pharmacological test method for the tumour cell proliferation inhibiting activity of the compound of the present invention was as follows:
The first was the determination of in vitro tumour growth inhibitory activity and the preliminary structure-activity relationship study, and different solid tumour cell lines were used to determine the in vitro antitumour activity of the synthesized compounds.
Experimental materials: cell lines: human ovarian cancer cells (OVCAR8), colon adenocarcinoma cells (HCT-116),
Medium: OVCAR8: RPMI 1640+fetal calf serum
Drug preparation method: dissolving the drug in DMSO to make a 50 mM of stock solution, and diluting it to a certain ratio to obtain 5 different concentrations.
Tumour Cells being Cultured In Vitro:
The selected tumour cells were incubated in a, 5% of CO2 cell incubator at 37° C., and passaged until the cell density was 70 to 90% (the adherent cells were passaged with Duck's EDTA) and used for subsequent experiments.
The compound was dissolved in dimethyl sulfoxide (DMSO), diluted, and tumour cells were seeded into 4000 cells/200 μL/well in 96-well plates, and 1 μL of compound was added to each well to a final concentration of 50 μM, 10 μM, 2 μM, and 0.4 μM. 0.08 μM were incubated in a, 5% of CO2 cell incubator at 37° C. for 72 hours with DMSO (1%) as a blank control.
The calculation formula of the cell inhibition rate is: cell inhibition rate %=(control group OD value−drug group OD value)/control cell OD value×100%, and the half inhibition concentration (IC50) was determined by the Bliss method.

[5] = same concentration (3 μM), ratio of inhibition rates

Cn1nccc1-c1ccc(C(=O)N[C@@H]2CNCC[C@H]2c2ccc(F)c(F)c2)c(F)c1.O=C(O)C[C@H](O)C(=O)O [VII-30]
hERG (Inhibition rate at 3 μM concentration) (hERG potassium channel): 20%
hERG blocking effect relative to GSK2141795 (hERG potassium channel; [5]): 0.4
hERG blocking effect relative to compound 31 (WO2015/144021A1) (hERG potassium channel; [5]): 0.32
RTV [1]: 7.29 ± 3.03
T/C(%) [1]: 17.27%
Tumour volume D1 [1]: 215 ± 88 mm^3
Tumour volume D22 [1]: 1157 ± 452* mm^3
1/2 [2]: 3.63 h
AUC0-inf [2]: 2390 ng·h/mL
AUC0-t [2]: 2350 ng·h/mL
improvement of AUC0-t over VII-1a ([2]; salt versus free form VII-1a): 58%
Cmax ([2]; in vivo): 253 ng/mL
Tmax ([2]; in vivo): 1.75 h
T/C(%) [3]: 32.96%
Tumour volume D1 ([3]; D 1 (start), x ± SE): 117 ± 65 mm^3
Tumour volume D22 ([3]; D 22, x ± SE): 248 ± 19* mm^3
RTV ([3]; x ± SE): 3.60 ± 2.67
T/C(%) ([4]; 50 mg/kg): 22.86%
Tumour volume D1 ([4]; 50 mg/kg): 125 ± 14 mm^3
Tumour volume D 21 ([4]; 50 mg/kg): 328 ± 105** mm^3
RTV ([4]; 50 mg/kg): 2.62 ± 0.83
T/C(%) ([4]; 100 mg/kg): 9.26%
Tumour volume D1 ([4]; 100 mg/kg): 126 ± 13 mm^3
Tumour volume D 21 ([4]; 100 mg/kg): 127 ± 51** mm^3
RTV ([4]; 100 mg/kg): 1.06 ± 0.43

Cn1nccc1-c1ccc(C(=O)N[C@@H]2CNCC[C@H]2c2ccc(F)c(F)c2)c(F)c1 [VII-1a]
IC50 (CEM-C1): 100 nM
IC50 (HGC27): 40 nM
hERG (Inhibition rate at 3 μM concentration) (hERG potassium channel): 15.9%
RTV [1]: 11.37 ± 3.07
T/C(%) [1]: 26.95%
Tumour volume D1 [1]: 213 ± 102 mm^3
Tumour volume D22 [1]: 1498 ± 206* mm^3
IC50 (MCF-7): 2250 nM
1/2 [2]: 3.34 h
AUC0-inf [2]: 1500 ng·h/mL
AUC0-t [2]: 1480 ng·h/mL
Cmax ([2]; plasma): 132 ng/mL
Tmax ([2]; plasma): 4.17 h
IC50 (786-O): 560 nM
IC50 (HCT-116): 1340 nM
